Data: patent publication EP0908183A1, “Dehydroepiandrosterone or derivatives thereof for increasing the content of hyaluronic acid in skin” (INSTITUTE FOR ADVANCED SKIN RESEARCH INC., priority 1997, dated 1999)

Legend:
[1] = test system: content of hyaluronic acid in skin; assay: content of hyaluronic acid in skin of aging mice after application to dorsal skin; format: in vivo; conditions: aging mice Balb/c; for efficacy in increasing the content of hyaluronic acid in skin when combined with alimidex: DHEA administered simultaneously with aromatase inhibitor alimidex
Description: Dehydroepiandrosterone (DHEA) as an ethanol solution at a concentration of 10^-1M was applied to skin of the dorsal part of aging mice (Balb/c, 48 weeks old, in each group consisting of 6 animals) for 5 weeks.
To evaluate the reproducibility of its efficacy, DHEA was applied in various concentrations of 10^-1, 10^-2 and 10^-3M to aging mice (Balb/c, 53 weeks, in each group consisting of 8 animals). Further, in order to see whether DHEA became effective only after it was metabolized to estrodiol, alimidex that inhibited aromatase, which is an enzyme for causing a conversion to estrogens, was administered simultaneously with DHEA. […] This means the concentration of DHEA can be lowered to a tenth of the initial value.

[2] = acute toxicity tests with mice; conditions: mouse, in vivo
Description: It was confirmed that dehydroepiandrosterone (DHEA), which is used as an active ingredient in the present invention, was effective in increasing the hyaluronic acid content of skin to prevent and treat the symptoms of aging of skin. It was also confirmed that dehydroepiandrosterone was effective in inhibiting scar formation during the healing of an injury to skin. In addition, unlike retinoic acid which is teratogenic and estrogens that induce cardiovascular disorders, DHEA in its stable sulfate form has been commercialized as a drug that aids the process of childbirth and is used in clinical applications.

Structure (SMILES) | content of hyaluronic acid in skin ([1]; 10^-1M, 53 weeks, reproducibility experiment, Fig. 2) | content of hyaluronic acid in skin ([1]; 10^-2M, 53 weeks, reproducibility experiment, Fig. 2) | efficacy in increasing the content of hyaluronic acid in skin when combined with alimidex ([1]; 53 weeks, Fig. 2) | efficacy in increasing the content of hyaluronic acid in skin when combined with alimidex ([1]; 53 weeks, Fig. 2, listed as dehydroepiandrosterone) | content of hyaluronic acid in skin ([1]; ethanol solution 10^-1M applied to dorsal skin for 5 weeks, 48 weeks old, vs control group, Fig. 1) | LD50 ([2]; iv, injected intravenously) [mg/kg] | LD50 ([2]; po, peroral) [mg/kg] | LD50 ([2]; sc, injected subcutaneously) [mg/kg] | content of hyaluronic acid in skin ([1]; aromatase inhibitor applied alone, 53 weeks, Fig. 2)
C[C@]12CC[C@H](O)CC1=CC[C@@H]1[C@@H]2CC[C@]2(C)C(=O)CC[C@@H]12 [DHEA, dehydroepiandrosterone] | statistically significant increase | statistically significant increase | not suppressed | not lowered | increased the content of hyaluronic acid in skin with a statistically significant difference from the control group | 274 | ≥ 10000 | 899 | –
CC(C)(C#N)c1cc(Cn2cncn2)cc(C(C)(C)C#N)c1 [alimidex, reference compound] | – | – | – | – | – | – | – | – | no ability to increase the content of hyaluronic acid
